Patent US10406166B2, “Antimicrobial compound” (priority 2015, dated 2019)
Read-outs that look alike come from different tables or passages of the source.

Key:
RSV = test: Plaque reduction assay; format: cell-based, Human RSV (Respiratory Syncytial Virus); settings: A549, 10 μM added 3-4 hours before RSV; control titre 4.5×10^5
Procedure: (§1) Notes Cell obtained from ATCC and virus prep was subjected to one round of centrifugation through a 40% (V/V) glycerol to remove any interferon produced from infected cells. Growth medium was Dulbecco's modified Eagle's medium (DMEM) with 10% (v/v) foetal calf serum (FCS), Viral maintenance medium was DMEM+2% (v/v) FCS
A549 cells were seeded into a T25 flask and grown until 60-70% confluent. To one set of flasks (n=3) 5-Phenyl-S-3-amino-2,3-dihydro-1H-1,4-benzodiazepin-2-one (5) in DMSO was added at a concentration of 10 μM and allowed to incubate for 3-4 hours before the addition of RSV at an […] and incubated until extensive cytopathic effect (cpe) was evident, usually after 3 days. The concentration of 5-Phenyl-S-3-amino-2,3-dihydro-1H-1,4-benzodiazepin-2-one (5) was kept constant by replacing the medium each day (RSV is largely cell associated). After which virus was harvested by homogenising the cells in a final volume of 1 ml. The viral titre was determined by plaque assay and staining after 8 days. A control assay was conducted using DMSO in place of the DMSO solution of 5-Phenyl-S-3-amino-2,3-dihydro-1H-1,4-benzodiazepin-2-one (5). […]

Cell cytotoxicity CC50 = format: cell-based; settings: human, 6-8 days, top concentration 100 μM, read-out: CC50 (concentration at which 50% cell toxicity is observed)
Source text: as §1
Cell Cytotoxicity—CC50 (concentration at which 50% cell toxicity is observed):
A549 cells and HeLa cells were used to seed a set of 96 well plates grown until 50% confluent, a 2 fold serial dilution of 5-Phenyl-S-3-amino-2,3-dihydro-1H-1,4-benzodiazepin-2-one (5) was performed on each cell line with DMSO (only) as control starting with 100 μM of 5-Phenyl-S-3-amino-2,3-dihydro-1H-1,4-benzodiazepin-2-one (5). Medium used was DMEM+2% FCS (normal medium for viral growth).
Cells were allowed to grow for 6-8 days to mimic a TCID50 assay after which cell viability was determined by adding Almar blur (similar to XTT) and reading at 600 nm (excitation 540 nm). No significant difference was observed between cells treated with 5-Phenyl-S-3-amino-2,3-dihydro-1H-1,4-benzodiazepin-2-one (5) and the DMSO control. No significant difference was observed between HeLa and A549 cells.

RSV A2 strain = test: Infected cell viability assay (A549 only); format: cell-based, Human RSV (Respiratory Syncytial Virus); settings: human respiratory syncytial virus, moi 0.1, 8 days
Procedure: as §1
96 wells plates were set up as previously described. As before a 2 fold serial dilution of 5-Phenyl-S-3-amino-2,3-dihydro-1H-1,4-benzodiazepin-2-one (5) was added prior to addition of virus at a multiplicity of infection (moi) of 0.1, as determined by a plaque assay, in a volume of 50 μl (starting conc 100 μM). After incubating for 4 hours RSV A2 strain was added at an moi of 0.1 maintaining the concentration of 5-Phenyl-S-3-amino-2,3-dihydro-1H-1,4-benzodiazepin-2-one (5). As before, DMSO was the control. The final lane was a mock infected minus 5-Phenyl-S-3-amino-2,3-dihydro-1H-1,4-benzodiazepin-2-one (5) to show viability of cells after 8 days incubation.
Every two days for up to 8 days the media plus drug was replaced to maintain activity, after 8 days cell viability was assayed by cell staining with methylene blue. Each experiment was performed twice with similar results, see FIG. 14.
An alternative experiment was set up as before except virus, at an moi of 0.1, was added before the drug and allowed to incubate for 4 hours. […]

Staphyloccci epidermidis = test: Antimicrobial susceptibility (MIC, agar dilution); format: cell-based; settings: Isosensitest agar, 128-1 μg/mL, 37° C. for 24 h
Procedure: (§2) For each putative antimicrobial, determination of the antimicrobial susceptibility was performed in strict accordance with the recommendations of the British Society for Antimicrobial Chemotherapy. Isosensitest agar (Oxoid) was prepared according to the manufacturer's instructions and sterilized by autoclaving at 116° C. for 20 min. This was then cooled to 50° C. in a waterbath. A 10 mg sample of each antimicrobial was dissolved in 1 mL DMSO. A 256 μL aliquot was added to 19.744 mL of molten Isosensitest agar at 50° C. and mixed well. This was poured into a Petri dish to produce a culture plate containing a final concentration of 128 μg/mL. Smaller volumes of solution (ranging from 128-2 μL) were also incorporated into agar plates in similar fashion to produce a final concentration range of 128-1 μg/mL. A set of control plates was prepared containing DMSO at an identical concentration range without antimicrobial.
(§3) A panel of microorganisms was obtained from the National Collection of Type Cultures (NCTC), Colindale, UK, the National Collection of Pathogenic Fungi (NCPF), Colindale, UK, and the American Type Culture Collection (ATCC), Manassas, Va. USA. The panel included a range of pathogenic species and comprised Bacillus subtillis, Listeria monocytogenes, Staphyloccci epidermidis, Staphylococcus aureus, Staphylococcus aureus (MRSA) and Streptococcis pyogenes, all of which are Gram-positive bacteria. Each strain was cultured onto Columbia agar (Oxoid) and incubated overnight at 37° C. Colonies were then suspended in sterile distilled water (SDW) to produce a suspension of 1.5×10^8 colony forming units CFU/mL using a densitometer. This suspension was then diluted 1/15 in SDW and 1 μL was inoculated onto all test media using a semi-automated multipoint inoculator (final inoculum: 10 000 CFU per spot). All media were incubated at 37° C. for 24 h and examined for the presence of growth. […] All tests were repeated on a separate occasion to ensure reproducibility.
(§4) Determination of the antimicrobial susceptibility of the samples containing the isolated R and S enantiomers was performed as set out in Example 2.

Listeria monocytogenes = test: Antimicrobial susceptibility (MIC, agar dilution); format: cell-based; settings: Isosensitest agar, 128-1 μg/mL, 37° C. for 24 h
Procedure: as §2, §3, §4

Bacillus subtilis = test: Antimicrobial susceptibility (MIC, agar dilution); format: cell-based; settings: Isosensitest agar, 128-1 μg/mL, 37° C. for 24 h
Procedure: as §2, §3, §4

Staphylococcus aureus = test: Antimicrobial susceptibility (MIC, agar dilution); format: cell-based; settings: Isosensitest agar, 128-1 μg/mL, 37° C. for 24 h
Procedure: as §2, §3, §4

[1] = tested on: Staphylococcus aureus (MRSA); test: Antimicrobial susceptibility (MIC, agar dilution); format: cell-based; settings: Isosensitest agar, 128-1 μg/mL, 37° C. for 24 h
Procedure: as §2, §3, §4

Streptococcis pyogenes = test: Antimicrobial susceptibility (MIC, agar dilution); format: cell-based; settings: Isosensitest agar, 128-1 μg/mL, 37° C. for 24 h
Procedure: as §2, §3, §4

[2] = aqueous; cited from earlier work

SMILES: O=c1n(-c2c(F)c(F)nc(F)c2F)c2ccccc2n1-c1c(F)c(F)nc(F)c1F
- melting point: 154.9 to 156 °C

SMILES: O=C1C(=O)N(c2c(F)c(F)nc(F)c2F)c2ccccc21
- melting point: 160.3 to 162.6 °C

SMILES: COC(=O)CNc1c(F)c(F)nc(F)c1F
- melting point: 67.8 to 68.7 °C

SMILES: O=C1Nc2ccccc2C(c2ccccc2)=NC1Nc1c(F)c(F)nc(F)c1F (racemic) [Compound 5, 5-Phenyl-3-[(tetrafluoropyridin-4-yl)amino]-2,3-dihydro-1H-1,4-benzodiazepin-2-one]
- viral titre after exposure (RSV): 2.3×10^3 viral infectivity units
- CC50 (Cell cytotoxicity CC50; A549 cells): ≥ 100000 nM
- CC50 (Cell cytotoxicity CC50; HeLa cells): ≥ 100000 nM
- EC50 (RSV A2 strain; A549, compound added 4 hours before virus, Reed and Meunch, read-out: half maximal effective concentration (EC50)): 2400 nM
- EC50 (RSV A2 strain; A549, virus added 4 hours before the drug, Reed & Meunch, read-out: EC50): ~3000 nM
- antibacterial activity (by minimum inhibitory concentration) (Staphyloccci epidermidis): exhibited antibacterial activity
- antibacterial activity (by minimum inhibitory concentration) (Staphyloccci epidermidis; listed as racemate): effective
- antibacterial activity (by minimum inhibitory concentration) (Listeria monocytogenes): exhibited antibacterial activity
- antibacterial activity (by minimum inhibitory concentration) (Listeria monocytogenes; listed as racemate): effective
- antibacterial activity (by minimum inhibitory concentration) (Bacillus subtilis): not
- antibacterial activity (by minimum inhibitory concentration) (Staphylococcus aureus): exhibited antibacterial activity
- antibacterial activity (by minimum inhibitory concentration) (Staphylococcus aureus; listed as racemate): effective
- antibacterial activity (by minimum inhibitory concentration) [1]: exhibited antibacterial activity
- antibacterial activity (by minimum inhibitory concentration) ([1]; listed as racemate): effective
- antibacterial activity (by minimum inhibitory concentration) (Streptococcis pyogenes): exhibited antibacterial activity
- antibacterial activity (by minimum inhibitory concentration) (Streptococcis pyogenes; listed as racemate): effective

SMILES: O=C1Nc2ccccc2C(c2ccccc2)=N[C@@H]1Nc1c(F)c(F)nc(F)c1F (single isomer, unassigned; enantiomer 5) [S enantiomer, 5-Phenyl-S-3-[(tetrafluoropyridin-4-yl)amino]-2,3-dihydro-1H-1,4-benzodiazepin-2-one]
- antibacterial activity (by minimum inhibitory concentration) (Staphyloccci epidermidis): effective
- antibacterial activity (by minimum inhibitory concentration) (Listeria monocytogenes): effective
- antibacterial activity (by minimum inhibitory concentration) (Bacillus subtilis): effective
- antibacterial activity (by minimum inhibitory concentration) (Staphylococcus aureus): effective
- antibacterial activity (by minimum inhibitory concentration) [1]: effective
- antibacterial activity (by minimum inhibitory concentration) (Streptococcis pyogenes): effective

SMILES: O=C1Nc2ccc(Cl)cc2C(c2ccccc2Cl)=NC1O (centres unmarked) [Lorazepam]
- pKa [2]: ~13.0

SMILES: O=C1Nc2ccccc2C(c2ccccc2)=N[C@H]1Nc1c(F)c(F)nc(F)c1F [R enantiomer, 5-Phenyl-R-3-[(tetrafluoropyridin-4-yl)amino]-2,3-dihydro-1H-1,4-benzodiazepin-2-one]
- antibacterial activity (by minimum inhibitory concentration) (Staphyloccci epidermidis): effective
- antibacterial activity (by minimum inhibitory concentration) (Staphylococcus aureus): effective
- antibacterial activity (by minimum inhibitory concentration) [1]: effective
